From patent US20090130236A1, “ANTI-MICROBIAL AGENT AND ANTI-MICROBIAL COMPOSITION” (Hououdou Co., Ltd., priority 2002, published 2009)
In brackets after ≈: the same amount, converted by molar mass. Where two headings read alike, the source gives them in different places.

Legend:
[1] = tested on: clinically isolated 26 strains of P. acnes; assay: MIC, agar plate dilution, Test Example 10; type: cell-based, Propionibacterium acnes; details: reference data, not obtained through tests simultaneously carried out
[2] = tested on: Staphylococcus spp. (44 Strains); assay: MIC, agar plate dilution, Test Example 22; type: cell-based
Source text: Strains Used: There were used 44 strains of Staphylococcus spp. […] Sterilized distilled water was used in the dilution of the solution.

[3] = Cutibacterium acnes, read-out: MIC50
[4] = Cutibacterium acnes, read-out: MIC80
[5] = Staphylococcus, read-out: MIC50
[6] = Staphylococcus, read-out: MIC80

Structure (SMILES) | MIC50 [1] [µg/mL] | MIC80 [1] [µg/mL] | MIC50 [2] [µg/mL] | MIC80 [2] [µg/mL] | MIC50 [1, 3] [µg/mL] | MIC80 [1, 4] [µg/mL] | MIC50 [2, 5] [µg/mL] | MIC80 [2, 6] [µg/mL]
CCC[C@@H]1C[C@@H](C(=O)N[C@@H]([C@H]2O[C@H](SC)[C@H](O)[C@@H](O)[C@H]2O)[C@H](C)Cl)N(C)C1 [CLDM, Clindamycin] | 0.10 (≈ 0.235 µM) | 0.19 (≈ 0.447 µM) | 0.10 (≈ 0.235 µM) | >100 |  |  |  | 
CN(C)c1ccc(O)c2c1C[C@H]1C[C@H]3[C@H](N(C)C)C(O)=C(C(N)=O)C(=O)[C@@]3(O)C(O)=C1C2=O [MINO, Minocycline] |  |  |  |  | 0.05 (≈ 0.109 µM) | 0.1 (≈ 0.219 µM) | 0.1 (≈ 0.219 µM) | 0.1 (≈ 0.219 µM)
CC1CCc2c(N3CCC(O)CC3)c(F)cc3c(=O)c(C(=O)O)cn1c23 (centres unmarked) [NDFX, Nadifloxacin] |  |  |  |  | 0.19 (≈ 0.527 µM) | 0.19 (≈ 0.527 µM) | 0.05 (≈ 0.139 µM) | 0.78 (≈ 2.16 µM)
CC1COc2c(N3CCN(C)CC3)c(F)cc3c(=O)c(C(=O)O)cn1c23 (centres unmarked) [OFLX, Ofloxacin] |  |  |  |  | 0.39 (≈ 1.08 µM) | 0.39 (≈ 1.08 µM) | 0.39 (≈ 1.08 µM) | 0.78 (≈ 2.16 µM)
CN(C)[C@@H]1C(=O)C(C(N)=O)=C(O)[C@@]2(O)C(=O)C3=C(O)c4c(O)cccc4[C@@](C)(O)[C@H]3C[C@@H]12 [TC, Tetracycline] | 0.19 (≈ 0.428 µM) | 0.19 (≈ 0.428 µM) | 0.39 (≈ 0.878 µM) | 25 (≈ 56.3 µM) |  |  |  | 
